The assay relates to Peripheral blood mononuclear cells (PBMC). The assay can be described thus: Cytokine Induction in Human Cells (in vitro human blood cell system, IFN and TNF secreted into culture media). The class given is cell-based. Details: key to Lowest Effective Concentration (μM) Tumor Necrosis Factor / Lowest Effective Concentration (μM) Interferon: *: no induction was seen at any of the tested concentrations. Conditions: 18 to 24 hours, tested 30-0.014 μM. An excerpt: An in vitro human blood cell system is used to assess cytokine induction. Activity is based on the measurement of interferon and tumor necrosis factor (α) (IFN and TNF, respectively) secreted into culture media as described by Testerman et. al. In “Cytokine Induction by the Immunomodulators Imiquimod and S-27609”, Journal of Leukocyte Biology, 58, 365-372 (September, 1995).
Whole blood from healthy human donors is collected by venipuncture into EDTA vacutainer tubes. Peripheral blood mononuclear cells (PBMC) are separated from whole blood by density gradient centrifugation using Histopaque®-1077. Blood is diluted 1:1 with Dulbecco's Phosphate Buffered Saline (DPBS) or Hank's Balanced Salts Solution (HBSS). The PBMC layer is collected and washed twice with DPBS or HBSS and resuspended at 4×10^6 cells/mL in RPMI complete. The PBMC suspension is added to 48 well flat bottom sterile tissue culture plates (Costar, Cambridge, Mass. or Becton Dickinson Labware, Lincoln Park, N.J.) containing an equal volume of RPMI complete media containing test compound.
The compounds are solubilized in dimethyl sulfoxide (DMSO). The DMSO concentration should not exceed a final concentration of 1% for addition to the culture wells. The compounds are generally tested at concentrations ranging from 30-0.014 μM.
The solution of test compound is added at 60 μM to the first well containing RPMI complete and serial 3 fold dilutions are made in the wells. The PBMC suspension is then added to the wells in an equal volume, bringing the test compound concentrations to the desired range (30-0.014 μM). The final concentration of PBMC suspension is 2×10^6 cells/mL. The plates are covered with sterile plastic lids, mixed gently and then incubated for 18 to 24 hours at 37° C. in a 5% carbon dioxide atmosphere.
Following incubation the plates are centrifuged for 10 minutes at 1000 rpm (˜200×g) at 4° C. The cell-free culture supernatant is removed with a sterile polypropylene pipet and transferred to sterile polypropylene tubes. Samples are maintained at −30 to −70° C. until analysis. The samples are analyzed for interferon (α) by ELISA and for tumor necrosis factor (α) by ELISA or IGEN Assay.
Interferon (α) concentration is determined by ELISA using a Human Multi-Species kit from PBL Biomedical Laboratories, New Brunswick, N.J. Results are expressed in pg/mL.
Tumor necrosis factor (α) (TNF) concentration is determined using ELISA kits available from Biosource International, Camarillo, Calif. Alternately, the TNF concentration can be determined by Origen® M-Series Immunoassay and read on an IGEN M-8 analyzer from IGEN International, Gaithersburg, Md. The immunoassay uses a human TNF capture and detection antibody pair from Biosource International, Camarillo, Calif. Results are expressed in pg/mL.
The table below lists the lowest concentration found to induce interferon and the lowest concentration found to induce tumor necrosis factor for each compound.

Where [1] appears, read: Homo sapiens, PBMC, lowest concentration found to induce interferon (α), ELISA, read-out: Lowest Effective Concentration (μM) Interferon.
[2] abbreviates: lowest concentration found to induce tumor necrosis factor (α), ELISA or IGEN assay.
Setting [3] is: Homo sapiens, PBMC, lowest concentration found to induce tumor necrosis factor (α), ELISA or IGEN assay, read-out: Lowest Effective Concentration (μM) Tumor Necrosis Factor.
Setting [4] is: lowest concentration found to induce interferon (α), ELISA.

Counter-ions that a name gives are not always drawn. Like-named read-outs stand apart in the source and are kept apart here.

Take `CC(C)C(COCc1cccc(Cl)c1)n1cnc2c(N)nc3ccccc3c21` (stereo not shown) [Example 61]: under setting [1], the minimal effective concentration worked out at 3.33 µM. Also, the “Lowest Effective Concentration (μM) Tumor Necrosis Factor” value under setting [2] was “*”.
Regarding `CC(C)C(COCc1cccc(C#N)c1)n1cnc2c(N)nc3ccccc3c21` (stereo not shown) [Example 65], under setting [1], the minimal effective concentration was found to be 1.11 µM. Further, the “Lowest Effective Concentration (μM) Tumor Necrosis Factor” value under setting [2] is recorded as “*”.
For the molecule `Nc1nc2ccccc2c2c1ncn2CCOCc1ccccc1` [Example 42], under setting [1], the minimal effective concentration is 0.37 µM. The “Lowest Effective Concentration (μM) Tumor Necrosis Factor” value under setting [2] is reported as “*”.
Take `CCCCc1nc2c(N)nc3c(c2n1CCOCc1cccc(Cl)c1)CCCC3` [Example 89]: the minimal effective concentration reads like this: under setting [1], 0.37 µM; under setting [3], 10 µM.
On to `CCC(COc1ccccc1C#N)n1cnc2c(N)nc3ccccc3c21` (stereo not shown) [Example 102], for which, under setting [1], the minimal effective concentration is 0.37 µM. For the same molecule, under setting [2], the “Lowest Effective Concentration (μM) Tumor Necrosis Factor” value is reported as “*”.
For `CC(C)(Cn1cnc2c(N)nc3ccccc3c21)OCc1ccc(Cl)cc1` [Example 34], the “Lowest Effective Concentration (μM) Interferon” value under setting [4] is on record as “*”. The “Lowest Effective Concentration (μM) Tumor Necrosis Factor” value under setting [2] is “*”.
As to `Cc1ccc(COC(Cn2cnc3c(N)nc4ccccc4c32)c2ccccc2)cc1` (stereo not shown) [Example 31], the “Lowest Effective Concentration (μM) Interferon” value under setting [4] is reported as “*”. Under setting [2], the “Lowest Effective Concentration (μM) Tumor Necrosis Factor” value is on record as “*”.
For `CC(n1cnc2c(N)nc3ccccc3c21)C(C)(C)OCc1ccccc1` (stereo not shown) [Example 80], the “Lowest Effective Concentration (μM) Interferon” value under setting [4] was “*”. Besides, under setting [2], the “Lowest Effective Concentration (μM) Tumor Necrosis Factor” value is given as “*”.
Consider `CCOCc1nc2c(N)nc3ccccc3c2n1CCOCCCCCCOCCCCc1ccccc1` [Example 20, 2-(Ethoxymethyl)-1-(2-{[6-(4-phenylbutoxy)hexyl]oxy}ethyl)-1H-imidazo[4,5-c]quinoline-4-amine], for which, under setting [4], the “Lowest Effective Concentration (μM) Interferon” value is listed as “*”. For the same molecule, the “Lowest Effective Concentration (μM) Tumor Necrosis Factor” value under setting [2] is recorded as “*”.
Consider `Cc1ccc([N+](=O)[O-])c(OC(C)Cn2cnc3c(N)nc4ccccc4c32)c1` (stereo not shown) [Example 56], for which the minimal effective concentration by setting is: under setting [1], 1.11 µM; under setting [3], 10 µM.
With `CC(C)C(COc1ccc([N+](=O)[O-])cc1)n1cnc2c(N)nc3ccccc3c21` (stereo not shown) [Example 58], the minimal effective concentration under setting [1] was 3.33 µM. Besides, under setting [2], the “Lowest Effective Concentration (μM) Tumor Necrosis Factor” value is “*”.
`Nc1ccccc1CCCOCCn1cnc2c(N)nc3ccccc3c21` [Example 18, 1-{2-[3-(2-Aminophenyl)propoxy]ethyl}-1H-imidazo[4,5-c]quinolin-4-amine trifluoroacetate]: the minimal effective concentration is, setting by setting: under setting [1], 0.12 µM; under setting [3], 1.11 µM.
In the case of `Nc1nc2ccccc2c2c1ncn2CCCCOCc1ccccc1` [Example 75], under setting [4], the “Lowest Effective Concentration (μM) Interferon” value is reported as “*”. Besides, under setting [2], the “Lowest Effective Concentration (μM) Tumor Necrosis Factor” value is listed as “*”.
As to `Cc1cccc(COCCOCn2cnc3c(N)nc4ccccc4c32)c1` [Example 86], under setting [1], the minimal effective concentration came out at 0.37 µM. The “Lowest Effective Concentration (μM) Tumor Necrosis Factor” value under setting [2] was “*”.
For the molecule `CC(Cn1cnc2c(N)nc3ccccc3c21)Oc1ccc(C(C)(C)CC(C)(C)C)cc1` (stereo not shown) [Example 100], under setting [4], the “Lowest Effective Concentration (μM) Interferon” value is “*”. The “Lowest Effective Concentration (μM) Tumor Necrosis Factor” value under setting [2] is “*”.
In the case of `CCC(COCc1cccc(C)c1)n1cnc2c(N)nc3ccccc3c21` (stereo not shown) [Example 25], under setting [1], the minimal effective concentration worked out at 0.12 µM. In addition, the “Lowest Effective Concentration (μM) Tumor Necrosis Factor” value under setting [2] was “*”.
In the case of `Nc1nc2ccccc2c2c1ncn2CCOCCCc1ccccc1C(=O)O` [Example 13, 2-{3-[2-(4-Amino-1H-imidazo[4,5-c]quinolin-1-yl)ethoxy]propyl}benzoic acid trifluoroacetate], the minimal effective concentration under setting [1] stood at 10 µM and the minimal effective concentration under setting [3] turned out to be 10 µM.
In the case of `CCC(COc1ccc(-n2ccnc2)cc1)n1cnc2c(N)nc3ccccc3c21` (stereo not shown) [Example 101], the minimal effective concentration under setting [1] came to 0.04 µM and the minimal effective concentration under setting [3] was 10 µM.
For `Cc1ccc([N+](=O)[O-])c(OCC(C(C)C)n2cnc3c(N)nc4ccccc4c32)c1` (stereo not shown) [Example 55], the “Lowest Effective Concentration (μM) Interferon” value under setting [4] is “*”. In addition, the “Lowest Effective Concentration (μM) Tumor Necrosis Factor” value under setting [2] was “*”.
Regarding `CC(C)(Cn1cnc2c(N)nc3ccccc3c21)OCc1ccccc1` [Example 33], under setting [4], the “Lowest Effective Concentration (μM) Interferon” value is listed as “*”. Besides, under setting [2], the “Lowest Effective Concentration (μM) Tumor Necrosis Factor” value is given as “*”.
In the case of `CN(C)c1cccc(CCCOCCn2cnc3c(N)nc4ccccc4c32)c1` [Example 15, 1-(2-{3-[3-(Dimethylamino)phenyl]propoxy}ethyl)-1H-imidazo[4,5-c]quinolin-4-amine dihydrochloride], the minimal effective concentration under setting [1] was found to be 0.12 µM. Further, the “Lowest Effective Concentration (μM) Tumor Necrosis Factor” value under setting [2] was “*”.
In the same order, the values of `CC(COCc1ccc(C(F)(F)F)cc1)n1cnc2c(N)nc3ccccc3c21` (stereo not shown) [Example 74] are 0.37 µM and “*”.
As to `Cc1ccc(COC(C)(C)Cn2cnc3c(N)nc4ccccc4c32)cc1` [Example 36], under setting [4], the “Lowest Effective Concentration (μM) Interferon” value is given as “*”. In addition, under setting [2], the “Lowest Effective Concentration (μM) Tumor Necrosis Factor” value is “*”.
With `CC(C)C(COCc1ccccc1)n1cnc2c(N)nc3ccccc3c21` (stereo not shown) [Example 59], the minimal effective concentration under setting [1] worked out at 1.11 µM. In addition, the “Lowest Effective Concentration (μM) Tumor Necrosis Factor” value under setting [2] is “*”.
On to `Cc1ccc(COCCCCn2cnc3c(N)nc4ccccc4c32)cc1` [Example 77], for which the minimal effective concentration under setting [1] was 0.12 µM. Further, the “Lowest Effective Concentration (μM) Tumor Necrosis Factor” value under setting [2] is reported as “*”.
As to `CC(C)(Cn1cnc2c(N)nc3ccccc3c21)OCc1ccccc1Cl` [Example 38], the minimal effective concentration under setting [1] turned out to be 10 µM. In addition, the “Lowest Effective Concentration (μM) Tumor Necrosis Factor” value under setting [2] was “*”.
As for `CC(Cn1cnc2c(N)nc3ccccc3c21)OCc1ccc(C(C)(C)C)cc1` (stereo not shown) [Example 67], the minimal effective concentration under setting [3] was found to be 30 µM. Also, under setting [4], the “Lowest Effective Concentration (μM) Interferon” value was “*”.
Take `CC(C)C(COCc1ccc(Cl)cc1)n1cnc2c(N)nc3ccccc3c21` (stereo not shown) [Example 60]: the minimal effective concentration under setting [1] turned out to be 1.11 µM. Further, the “Lowest Effective Concentration (μM) Tumor Necrosis Factor” value under setting [2] is given as “*”.
For `N#Cc1ccc(COCCOCn2cnc3c(N)nc4ccccc4c32)cc1` [Example 87], in that order: 1.11 µM and “*”.
For `Cc1ccc(COCC(C)n2cnc3c(N)nc4ccccc4c32)cc1` (stereo not shown) [Example 72], under setting [1], the minimal effective concentration worked out at 1.11 µM. Also, the “Lowest Effective Concentration (μM) Tumor Necrosis Factor” value under setting [2] was “*”.
In the case of `C[C@@H](COCc1cccc(Cl)c1)Cn1cnc2c(N)nc3ccccc3c21` [Example 112], under setting [4], the “Lowest Effective Concentration (μM) Interferon” value is given as “*”. Moreover, the “Lowest Effective Concentration (μM) Tumor Necrosis Factor” value under setting [2] is given as “*”.
Take `CC(C)C(COc1ccccc1[N+](=O)[O-])n1cnc2c(N)nc3ccccc3c21` (stereo not shown) [Example 57]: the minimal effective concentration under setting [3] came out at 30 µM. Moreover, the “Lowest Effective Concentration (μM) Interferon” value under setting [4] was “*”.
As to `CCC(COCc1ccccc1)n1cnc2c(N)nc3ccccc3c21` (stereo not shown) [Example 24], the minimal effective concentration under setting [1] amounted to 0.12 µM. For the same molecule, the “Lowest Effective Concentration (μM) Tumor Necrosis Factor” value under setting [2] is on record as “*”.
`CCC(COCc1ccc(C#N)cc1)n1cnc2c(N)nc3ccccc3c21` (stereo not shown) [Example 46]: the minimal effective concentration (lowest concentration found to induce interferon (α), ELISA, read-out: Lowest Effective Concentration (μM) Interferon) came out at 0.01 µM and the minimal effective concentration (lowest concentration found to induce tumor necrosis factor (α), ELISA or IGEN assay, read-out: Lowest Effective Concentration (μM) Tumor Necrosis Factor) is given as 3.33 µM.
For `CCC(COCC(=O)OC)n1cnc2c(N)nc3ccccc3c21` (stereo not shown) [Example 43], under setting [1], the minimal effective concentration was 0.37 µM. In addition, the “Lowest Effective Concentration (μM) Tumor Necrosis Factor” value under setting [2] is “*”.

These data come from US6989389B2, “Aryl ether substituted imidazoquinolines” (3M Innovative Properties Co., priority 2000, dated 2006).
